Laboratory results from patent publication EP1263420B1 (priority 2000, dated 2001).
Several values for one entry are separate records, joined by “and”; a condition that tells them apart may be missing. Equal values may be shown once.

Test system: TGase II
Test: TGase II assay of rat liver tissue after inhaled 13-cis RA (experiment B)
Type: in vivo
Settings: for TGase II assay / TGase II assay DPM/µg protein: rat liver
Experimental: Male rats (n=23) (Sprague-Dawley from Charles River) were divided into six experimental groups and were given varying amounts of 13-cis RA through an inhalant apparatus once daily for different times each day for 14 days. The experimental groups were as follows (Table 1) :1.Vehicle control : rats (3) inhaled vehicle for 240 minutes; 2. Low dose 13-cis RA: rats (4) inhaled a solution containing 13-cis RA at a concentration of 62.2µg/liter (inhaled dose 115.0µg/kg body weight) in 5 minutes; 3. Low-Middle dose 13-cis RA : rats (4) inhaled a solution containing 13-cis RA at a concentration of 62.2µg/liter (inhaled dose 334.4µg/kg body weight) in 15 minutes; 4.Middle dose 13-cis RA: rats (4) inhaled a solution containing 13-cis RA at a concentration of 62.2µg/liter (inhaled dose 1012.3µg/kg body weight) in 45 minutes; 5. Middle-High dose 13-cis RA : rats (4) inhaled a solution containing 13-cis RA at a concentration of 62.2µg/liter (inhaled dose 2843.4µg/kg body weight) in 120 minutes; 6. High dose 13-cis RA : rats (4) inhaled a solution containing 13-cis RA at a concentration of 62.2µg/liter (inhaled dose 5935.6µg/kg body weight) in 240 minutes.
For liver tissue, a piece of approximately 100-400mg was used. Tissue was diced in small pieces and homogenized in approximately 2 volumes of scraping buffer for 2-3 minutes at 4°C. Samples were centrifuged at 14,000xg for 30 minutes at 4°C. The supernatant was removed and kept in ice until used.
Enzyme assay mixtures were prepared by adding 80µl of SUBSTRATE mixture (322.8µl H2O, 120µl 0.5M NaBorate, 60µl 0.01M EDTA, 60µl 0.1M CaCl2, 6µl 1M DTT, 240µl dimethyl casein, 30µl Triton X-100, 1.2µl [^3H]-Putrescine, 120µl Putrescine) to 20µl sample, 20µl scraping buffer for blank control , 20 µl (18µl scraping buffer + 2µl TGase II) for positive control. Samples were mixed in 15ml tubes, the tubes were shaken before putting them into a 28°C water bath for 30 minutes. Reactions were slowed down in an ice bath. 80µl of the incubation mixture was adsorbed onto paper disks. These were immediately dropped into cold 10% TCA (0.1% Putrescine) and washed with agitation for 7 minutes, followed by 2 additional washes with 5% TCA (0.05% putrescine) for 5~7 minutes, and once more with cold (-20°C) 95% ethanol for 5 minutes. Paper disks were dried and placed into 5ml Aquasol, and counted in a Liquid Scintillation Counter. Protein concentration determination was conducted by the Bradford method.

[1] = High: 240 minutes daily 14 Days, 1872µg/kg total deposited dose
[2] = Low-Middle: 15 minutes daily 14 Days, 117µg/kg total deposited dose
[3] = Middle-High: 120 minutes daily 14 Days, 936µg/kg total deposited dose
[4] = Middle: 45 minutes daily 14 Days, 351µg/kg total deposited dose

CC1=C(/C=C/C(C)=C/C=C/C(C)=C\C(=O)O)C(C)(C)CCC1 [13-cis RA, 13-cis-Retinoic Acid]
effect on liver TGase II activity (inhaled, up to 5.93mg/kg of inhaled dose): no significant effect
TGase II assay [1]: 0.271 +/- 0.015 picomoles/µg protein/30 min and 0.271 ± 0.015 picomoles/µg protein/30 min
TGase II assay DPM/µg protein [1]: 19719 DPM/µg protein
TGase II assay [2]: 0.273 +/- 0.018 picomoles/µg protein/30 min and 0.273 ± 0.018 picomoles/µg protein/30 min
TGase II assay DPM/µg protein [2]: 21448 DPM/µg protein
TGase II assay DPM/µg protein (Low: 5 minutes daily 14 Days, 39µg/kg total deposited dose): 22705 DPM/µg protein
TGase II assay (Low: 5 minutes daily 14 Days, 39µg/kg total deposited dose, vehicle 0.260): 0.289 +/- 0.007 picomoles/µg protein/30 min and 0.289 ± 0.007 picomoles/µg protein/30 min
TGase II assay [3]: 0.269 +/- 0.015 picomoles/µg protein/30 min and 0.269 ± 0.015 picomoles/µg protein/30 min
TGase II assay DPM/µg protein [3]: 20348 DPM/µg protein
TGase II assay [4]: 0.313 +/- 0.025 picomoles/µg protein/30 min and 0.313 ± 0.025 picomoles/µg protein/30 min
TGase II assay DPM/µg protein [4]: 24590 DPM/µg protein
